The values that follow are results of earlier work, collected in patent publication US20060009360A1, “New adjuvant composition” (priority 2004, published 2006).

For this data set the following is noted: glyphosate in acid form.

As for `O=C(O)CNCP(=O)(O)O` [glyphosate, N-(phosphonomethyl)glycine], the water solubility entry is recorded as “about 1.2%”.
